Reference: patent US20260159499A1, “COMPOUND AS FAK INHIBITOR AND USE THEREOF” (WIGEN BIOMEDICINE TECHNOLOGY (SHANGHAI) CO., LTD., priority 2021, published 2026)
Read-outs that look alike come from different tables or passages of the source.

Experiments:
[1] = target: FAK recombinant protein (Homo sapiens, UniProt Q05397); test: Inhibitory activity against FAK enzyme; type: biochemical; settings: TK substrate, ATP
Experimental: The compound serially diluted with DMSO and a FAK recombinant protein were mixed, and the mixture was left to stand at room temperature for 10 min. A biotin-labeled TK substrate (TK) and ATP were then added. […] After the mixture was incubated at room temperature for 1 h, the fluorescence intensity at 615 nm and 665 nm was measured. The ratio of the fluorescence intensity at 665 nm and 615 nm was calculated. The inhibition percentages and IC50 of the compounds were calculated compared to the DMSO control group.

[2] = system: PC3 cells; test: PC3 cell proliferation, 2D activity detection; type: cell-based, human; settings: Homo sapiens, PC-3, PC3, 2D, 72 h, read-out: 2D IC50 against PC3 cells
Experimental: 2D activity detection: 1200 PC3 cells were seeded in a 96-well plate. After overnight adherence culture, the compound serially diluted was added. 72 h after addition, Cell Titer-Lumi (Beyotime C0068XL) was added to measure the ATP content in the cells. The growth of the cells was evaluated, and IC50 of the compounds against cell growth was calculated.

[3] = system: PC3 cells; test: PC3 cell proliferation, 3D activity detection; type: cell-based, human; settings: Homo sapiens, PC-3, 336 h, PC3, 3D culture, 14 days, read-out: 3D IC50 against PC3 cells
Experimental: 3D activity detection: PC3 cells were seeded in a 96-well plate at 1200 cells/well, and 3D culture was performed. 14 days after the compound serially diluted was added, the growth of the cells was determined. The inhibition percentage and IC50 of the compound were calculated compared to the DMSO control group.

[4] = In vivo pharmacokinetic experiment in mice; design: species or system CD-1 female mice; settings: CD-1 mice; for AUC(0-t) / clearance / half-life / Vd / Cmax / Tmax / bioavailability: female, mouse, plasma; for Vd: read-out: Vdss; for bioavailability: oral administration 10 mg/kg vs injection
Experimental: On the day of the experiment, animals in the intravenous group were administered the corresponding compound by single injection via the tail vein at an administration volume of 10 mL/kg, and animals in the oral group were administered the corresponding compound by single intragastric injection at an administration volume of 10 mL/kg. The animals were weighed before administration, and the administration volume was calculated according to the body weight. […] About 200 μL of whole blood was collected through the orbital venous plexus at each time point and used to prepare plasma for concentration determination by high-performance liquid chromatography-tandem mass spectrometry (LC-MS/MS). The plasma concentrations were processed using a non-compartmental model of Winnolin pharmacokinetic software, and the pharmacokinetic parameters were calculated using a linear-log trapezoidal method.

[5] = system: PC3 cells; test: Inhibition of PC3 cell adherence; type: cell-based; settings: Homo sapiens, PC-3; PC3, 4 h treatment; read-out: Inhibitory activity against PC-3 cell adherence IC50
Experimental: PC3 cells were added at 8000 cells/well. 4 h after the cells were treated with the compound, the number of adherent cells was counted. The inhibition percentages and IC50 of the compounds were calculated compared to the DMSO group.

[6] = system: Human prostatic cancer PC3 cells; test: In vivo efficacy test in PC-3 model; design: species or system BALB/c nude mice; settings: 25 mg/kg, PO, QD (21 days)
Experimental: Female BALB/c nude mice (aged 6 weeks, 18-22 g) were provided by Vital River Laboratory Animal Technology Co., Ltd. (China) and used one week after quarantine and acclimation. All animals were kept in a room at 23±2° C. with a relative humidity of 50±5%, artificial lighting was provided from 08:00 to 20:00 every day, and the air was exchanged 13-18 times per hour.
After being subcultured, the cells were collected when they reached the desired amount. 1×10^7 PC3 cells were injected into the left dorsal side of each nude mouse, and the animals were randomly grouped for administration after tumors grew to 100-200 mm^3. The mice in the solvent control group were intragastrically administered 0.5% MC-Tween-80 twice a day; the mice in the compound groups were intragastrically administered 0.5% MC-Tween-80 suspension once a day. On Tuesday and Thursday each week, tumor volumes and body weight of the mice were measured, and the nude mice were sacrificed on day 21 after the administration.
(§1) The toxicity of the compounds was evaluated according to the body weight of the mice.

[7] = system: Mouse colon cancer MC38 cells; test: In vivo efficacy experiment in MC38 model; design: species or system BALB/c mice; settings: single drug 50 mg/kg, PO, QD (21 days)
Experimental: The BALB/c mice were subcutaneously injected with 1×10^6 MC38 cells on the right side to form tumors. […] The administration was then started. Tumor volumes were measured with a caliper on day 3, day 7, day 10, day 14, day 17 and day 21 after the administration.

[8] = system: Human pancreatic cancer Mia PaCa-2 cells; test: In vivo efficacy test in MiaPaCa-2 model; settings: 25 mg/kg, PO, QD (21 days)
Experimental: After being subcultured, the cells were collected when they reached the desired amount. 1×10^7 Mia PaCa-2 cells were injected into the left dorsal side of each nude mouse, and the animals were randomly grouped for administration after tumors grew to 100-200 mm^3. The mice in the solvent control group were intragastrically administered 0.5% MC-Tween-80 twice a day; the mice in the compound groups were intragastrically administered 0.5% MC-Tween-80 suspension once a day. On Tuesday and Thursday each week, tumor volumes and body weight of the mice were measured, and the nude mice were sacrificed on day 21 after the administration.
as §1

[9] = injection (IV) 1 mg/kg (footnote)

Sequence of FAK recombinant protein (Q05397 whole entry, species assumed): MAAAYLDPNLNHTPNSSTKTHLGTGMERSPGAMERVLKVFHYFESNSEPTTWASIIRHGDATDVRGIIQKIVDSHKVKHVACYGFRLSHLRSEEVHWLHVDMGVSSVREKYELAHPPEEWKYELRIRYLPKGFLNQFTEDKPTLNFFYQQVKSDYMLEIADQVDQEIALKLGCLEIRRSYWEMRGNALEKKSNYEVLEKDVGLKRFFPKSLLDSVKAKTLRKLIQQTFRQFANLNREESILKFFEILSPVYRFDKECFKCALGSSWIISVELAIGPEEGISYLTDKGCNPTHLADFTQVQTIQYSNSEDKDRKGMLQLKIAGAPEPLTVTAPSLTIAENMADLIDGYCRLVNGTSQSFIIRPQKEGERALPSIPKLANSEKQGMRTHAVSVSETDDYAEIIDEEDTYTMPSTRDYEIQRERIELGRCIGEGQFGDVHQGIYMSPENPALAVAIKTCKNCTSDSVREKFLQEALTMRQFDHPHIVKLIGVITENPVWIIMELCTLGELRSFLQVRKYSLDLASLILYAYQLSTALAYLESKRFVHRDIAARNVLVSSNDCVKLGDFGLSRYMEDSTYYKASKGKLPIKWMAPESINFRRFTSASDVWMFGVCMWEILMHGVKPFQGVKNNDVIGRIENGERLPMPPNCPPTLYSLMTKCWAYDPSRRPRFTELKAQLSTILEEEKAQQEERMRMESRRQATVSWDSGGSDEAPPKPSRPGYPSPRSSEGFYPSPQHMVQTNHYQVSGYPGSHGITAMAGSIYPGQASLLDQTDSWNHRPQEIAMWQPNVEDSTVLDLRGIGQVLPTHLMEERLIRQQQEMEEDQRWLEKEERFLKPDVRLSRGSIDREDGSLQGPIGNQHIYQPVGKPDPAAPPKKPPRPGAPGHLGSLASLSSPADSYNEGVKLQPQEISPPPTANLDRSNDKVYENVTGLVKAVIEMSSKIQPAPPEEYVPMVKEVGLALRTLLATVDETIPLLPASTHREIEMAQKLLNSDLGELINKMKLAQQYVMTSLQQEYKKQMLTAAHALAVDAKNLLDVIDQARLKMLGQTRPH

COc1cc(C(=O)NC2CCC3(CC2)CN(C)C3)c(F)cc1Nc1ncc(C(F)(F)F)c(Oc2cccc3c2C(=O)N(C)C3)n1 [Compound 20]
IC50 [1]: < 10 nM
IC50 ([2]; numeric): > 10000 nM
IC50 ([3]; numeric (mean where marked *)): 4.23 nM
AUC(0-t) ([4]; injection (IV) 2 mg/kg): 622 ng·h/mL
clearance ([4]; injection (IV) 2 mg/kg): 26.8 mL/min/kg
half-life ([4]; injection (IV) 2 mg/kg): 3.46 h
Vd ([4]; injection (IV) 2 mg/kg): 4.99 L/kg
AUC(0-t) ([4]; oral administration 10 mg/kg): 934 ng·h/mL
Cmax ([4]; oral administration 10 mg/kg): 190 ng/mL
Tmax ([4]; oral administration 10 mg/kg): 2 h
half-life ([4]; oral administration 10 mg/kg): 1.97 h
bioavailability [4]: 30%

COc1cc(C(=O)NC2CCC23CCN(C)CC3)c(F)cc1Nc1ncc(C(F)(F)F)c(Oc2cccc3c2C(=O)N(C)C3)n1 (stereo not shown) [Compound 21]
IC50 [1]: 10 to 50 nM
IC50 ([2]; numeric): > 10000 nM
IC50 ([3]; numeric (mean where marked *)): 1.32 nM
IC50 [5]: 8.5 nM

COc1cc(C(=O)N2CC3(CCN(C)CC3)C2)c(F)cc1Nc1ncc(C(F)(F)F)c(Oc2cccc3c2C(=O)N(C)C3)n1 [Compound 34]
IC50 [1]: < 10 nM
IC50 ([2]; class symbol): > 2000 nM
IC50 ([3]; numeric (mean where marked *)): 41.3 nM
IC50 [5]: 86 nM

COc1cc(N2CC3(CCN(C)CC3)CC2=O)c(F)cc1Nc1ncc(C(F)(F)F)c(Oc2cccc3c2C(=O)N(C)C3)n1 [Compound 62]
IC50 [1]: < 10 nM
IC50 ([2]; class symbol): > 2000 nM
IC50 ([3]; class symbol): < 5 nM
IC50 [5]: 2.88 nM

COc1cc(N2CC3(CCN(C)C3)OC2=O)c(F)cc1Nc1ncc(C(F)(F)F)c(Oc2cccc3c2C(=O)N(C)C3)n1 (stereo not shown) [Compound 64]
IC50 [1]: < 10 nM
IC50 ([2]; class symbol): > 2000 nM
IC50 ([3]; class symbol): 5 to 50 nM
IC50 [5]: 3.33 nM

COc1cc(N2CC3(CCN(C)C3)OCC2=O)c(F)cc1Nc1ncc(C(F)(F)F)c(Oc2cccc3c2C(=O)N(C)C3)n1 (stereo not shown) [Compound 66]
IC50 [1]: < 10 nM
IC50 ([2]; class symbol): > 2000 nM
IC50 ([3]; class symbol): > 50 nM
IC50 [5]: 7.01 nM

COc1cc(N2CC3(CCN(C)CC3)C2)ccc1Nc1ncc(C(F)(F)F)c(Oc2cccc3c2C(=O)N(C)C3)n1 [Compound 90, 7-((2-((2-methoxy-4-(7-methyl-2,7-diazaspiro[3.5]non-2-yl)phenyl)amino)-5-(trifluoromethyl)pyrimidin-4-yl)oxy)-2-methylisoindolin-1-one]
IC50 [1]: < 10 nM
IC50 ([2]; numeric): > 10000 nM
IC50 ([3]; numeric (mean where marked *)): 0.8 nM
IC50 [5]: 1.86 nM
oral bioavailability and oral absorption properties (in words) ([4]; oral 10 mg/kg): good oral bioavailability and good oral absorption properties
AUC(0-t) [4, 9]: 812 ng·h/mL
clearance [4, 9]: 20.5 mL/min/kg
half-life [4, 9]: 3.08 h
Vd [4, 9]: 5.34 L/kg
AUC(0-t) ([4]; oral administration 10 mg/kg): 7460 ng·h/mL
Cmax ([4]; oral administration 10 mg/kg): 635 ng/mL
Tmax ([4]; oral administration 10 mg/kg): 4 h
half-life ([4]; oral administration 10 mg/kg): 2.82 h
bioavailability [4]: 92%
Change in body weight [6]: −0.5%
TGI (%) [6]: 81.65%
Change in body weight [7]: +13.54%
TGI (%) [7]: 59.02%
Change in body weight [8]: +3.67%
TGI (%) [8]: 83.72%

COc1cc(N2CCC3(CC2)CN(C)C3)ccc1Nc1ncc(C(F)(F)F)c(Oc2cccc3c2C(=O)N(C)C3)n1 [Compound 92]
IC50 [1]: < 10 nM
IC50 ([2]; numeric): > 10000 nM
IC50 ([3]; numeric (mean where marked *)): 0.83 nM
IC50 [5]: 3.05 nM

COc1cc(N2CCC3(CCN(C)CC3)CC2)ccc1Nc1ncc(C(F)(F)F)c(Oc2cccc3c2C(=O)N(C)C3)n1 [Compound 94]
IC50 [1]: < 10 nM
IC50 ([2]; class symbol): > 2000 nM
IC50 ([3]; class symbol): < 5 nM
IC50 [5]: 2.58 nM

COc1cc(N2CC3(CCN(C)CC3)C2)ccc1Nc1ncc(C(F)(F)F)c(Oc2cccc3c2C(=O)N(C)C3C)n1 (stereo not shown) [Compound 100]
IC50 [1]: < 10 nM
IC50 ([2]; class symbol): > 2000 nM
IC50 ([3]; numeric (mean where marked *)): 2.22 nM
IC50 [5]: 1.33 nM

COc1cc(N2CC3(CCN(C)CC3)C2)ccc1Nc1ncc(C(F)(F)F)c(Oc2cccc3c2C(=O)N(C)C3(C)C)n1 [Compound 101]
IC50 [1]: < 10 nM
IC50 ([2]; class symbol): > 2000 nM
IC50 ([3]; numeric (mean where marked *)): 4.86 nM
IC50 [5]: 2.26 nM

COc1cc(N2CC3(CCNCC3)C2)ccc1Nc1ncc(C(F)(F)F)c(Oc2cccc3c2C(=O)N(C)C3)n1 [Compound 102]
IC50 [1]: < 10 nM
IC50 ([2]; class symbol): > 2000 nM
IC50 ([3]; class symbol): < 5 nM
IC50 [5]: 3.01 nM

[2H]C([2H])([2H])N1CCC2(CC1)CN(c1ccc(Nc3ncc(C(F)(F)F)c(Oc4cccc5c4C(=O)N(C)C5)n3)c(OC)c1)C2 [Compound 109, 7-((2-((2-methoxy-4-(7-(methyl-d3)-2,7-diazaspiro[3.5]non-2-yl)phenyl)amino)-5-(trifluoromethyl)pyrimidin-4-yl)oxy)-2-methylisoindolin-1-one]
IC50 [1]: < 10 nM
IC50 ([2]; class symbol): > 2000 nM
IC50 ([3]; class symbol): < 5 nM

COc1cc(N2CC3(CCN(C)CC3)C2)c(F)cc1Nc1ncc(Cl)c(Oc2cccc3c2C(=O)N(C)C3)n1 [Compound 110, 7-((5-chloro-2-((5-fluoro-2-methoxy-4-(7-methyl-2,7-diazaspiro[3.5]non-2-yl)phenyl)amino)pyrimidin-4-yl)oxy)-2-methylisoindolin-1-one]
IC50 [1]: < 10 nM
IC50 ([2]; class symbol): > 2000 nM
IC50 ([3]; class symbol): < 5 nM

COc1cc(N2CC3(CCN(C)CC3)C2)ccc1Nc1ncc(Cl)c(Oc2cccc3c2C(=O)N(C)C3)n1 [Compound 111]
IC50 [1]: < 10 nM
IC50 ([2]; class symbol): > 2000 nM
IC50 ([3]; numeric (mean where marked *)): 1.78 nM
IC50 [5]: 1.62 nM
Change in body weight [6]: −1.4%
TGI (%) [6]: 87.4%
Change in body weight [7]: +21.07%
TGI (%) [7]: 47.67%
Change in body weight [8]: +6.08%
TGI (%) [8]: 82.32%

COc1cc(N2CC3(CCN(C)CC3)C2)ccc1Nc1ncc(Br)c(Oc2cccc3c2C(=O)N(C)C3)n1 [Compound 112]
IC50 [1]: < 10 nM
IC50 ([2]; class symbol): > 2000 nM
IC50 ([3]; numeric (mean where marked *)): 0.66 nM
IC50 [5]: 0.93 nM

COc1cc(N2CC3(CCN(C)CC3)C2)ccc1Nc1ncc(C#N)c(Oc2cccc3c2C(=O)N(C)C3)n1 [Compound 113]
IC50 [1]: < 10 nM
IC50 ([2]; class symbol): > 2000 nM
IC50 ([3]; numeric (mean where marked *)): 1.58 nM
IC50 [5]: 3.56 nM

COc1cc(N2CC3(CCN(C)CC3)C2)ccc1Nc1ncc([N+](=O)[O-])c(Oc2cccc3c2C(=O)N(C)C3)n1 [Compound 114]
IC50 [1]: < 10 nM
IC50 ([2]; class symbol): > 2000 nM
IC50 ([3]; class symbol): < 5 nM
IC50 [5]: 2.63 nM

COc1cc(N2CC3(CCN(C)CC3)C2)ccc1Nc1ncc(F)c(Oc2cccc3c2C(=O)N(C)C3)n1 [Compound 115]
IC50 [1]: < 10 nM
IC50 ([2]; class symbol): > 2000 nM
IC50 ([3]; numeric (mean where marked *)): 67 nM

COc1cc(N2CCC3(CC2)CN(C)C3)ccc1Nc1ncc(Cl)c(Oc2cccc3c2C(=O)N(C)C3)n1 [Compound 116]
IC50 [1]: < 10 nM
IC50 ([2]; class symbol): > 2000 nM
IC50 ([3]; class symbol): < 5 nM

COc1cc(N2CCC3(CC2)CN(C)C3)ccc1Nc1ncc(Br)c(Oc2cccc3c2C(=O)N(C)C3)n1 [Compound 117]
IC50 [1]: < 10 nM
IC50 ([2]; class symbol): > 2000 nM
IC50 ([3]; class symbol): < 5 nM
